Data on nine compounds can be found in patent US10633419B2, “Immunomodulators” (BRISTOL-MYERS SQUIBB COMPANY, priority 2014, dated 2020).

SMILES strings stand for the structures. Starred links: 1 amine or outer side, 2 acyl side, 3 side chain; linkers in the order of their positions; H or OH if unused. Positions of bridges follow the written chain, without caps; N, C: chain ends. Non-standard residues stand in square brackets, D forms with d. Residues, ends and D or L forms follow the SMILES beside them. Groups on a side chain read outwards from the residue. *: point of attachment. X22 = CCCCCCCCCCCCCC(=O)N[C@H](CCC(=O)NCCCC[C@H](NC(=O)CCC(=O)NCCCOCCOCCOCCCN*)C(N)=O)C(=O)O; Dap(Nα-HOOC(CH2)16CO)OH = O=C(O)CCCCCCCCCCCCCCCCC(=O)N[C@@H](CN*)C(=O)O; Trp(1-CH2COOH) = N[C@@H](Cc1cn(CC(=O)O)c2ccccc12)C(=O)O; X9 = O=C(O)CCCCCCCCCCCCCCCCC(=O)N[C@@H](CCN*)C(=O)O; C18 diacid = O=C(O)CCCCCCCCCCCCCCCCC(=O)*; γGlu = O=C(O)[C@H](CCC(=O)[*:2])N[*:1]; NH(CH2)12COOH = O=C(O)CCCCCCCCCCCCN*; PEG6 = NCCOCCOCCOCCOCCOCCOCCC(=O)O; Hyp = O=C(O)[C@@H]1C[C@@H](O)CN1; NMeNle = CCCC[C@H](NC)C(=O)O; Pip = O=C(O)[C@@H]1CCCCN1; NMeA = CN[C@@H](C)C(=O)O; Pra = C#CC[C@H](N)C(=O)O; Aun = NCCCCCCCCCCC(=O)O; Dab = NCC[C@H](N)C(=O)O; Dap = NC[C@H](N)C(=O)O

T1 sequence (Q9NZQ7 with tags, fused parts or gaps): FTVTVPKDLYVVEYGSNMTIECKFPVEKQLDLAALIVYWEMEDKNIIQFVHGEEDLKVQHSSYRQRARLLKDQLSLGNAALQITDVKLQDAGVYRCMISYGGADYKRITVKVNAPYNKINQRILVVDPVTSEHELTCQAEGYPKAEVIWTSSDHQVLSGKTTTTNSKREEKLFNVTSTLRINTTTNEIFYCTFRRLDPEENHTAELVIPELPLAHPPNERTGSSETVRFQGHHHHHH

The experiment concerns the target T1, PD-L1 (Homo sapiens, UniProt Q9NZQ7).
T1 construct: hPDL1(19-239)-TVMV-His; made in house; host or cells: HEK293T
As to the kind of experiment: PD-1/PD-L1 Homogenous Time-Resolved Fluorescence (HTRF) binding assay (PD-1-Ig/PD-L1-His). The settings on record: inhibition of PD-1-Ig binding to PD-L1-TVMV-His; value given as range class; read-out: HTRF IC50. In a few lines:
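Inhibitors pre-incubated 15 min with PD-L1-His (10 nM final), then PD-1-Ig (20 nM final) added for 15 min in dPBS/0.1% BSA/0.05% Tween-20. Eu-cryptate anti-Ig (1 nM) and APC anti-His (20 nM) added, 30 min equilibration, 665/620 nm HTRF ratio read.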
Turning to `CCCC[C@H]1C(=O)N(C)[C@@H](CCCC)C(=O)N[C@@H](CC(C)C)C(=O)N[C@H](C(=O)NCC(=O)N[C@@H](Cc2cn(CCOCCOCCOCCOCCOCCOCCOCCOCCOCCOCCOCCNC(=O)CCCNC(=O)CCCCCCCCCCCCCCCCC(=O)O)nn2)C(=O)O)CSCC(=O)N[C@@H](Cc2ccc(O)cc2)C(=O)N(C)[C@@H](C)C(=O)N[C@@H](CC(N)=O)C(=O)N2CCC[C@H]2C(=O)N[C@@H](CN)C(=O)N[C@@H](CC(C)C)C(=O)N2C[C@H](O)C[C@H]2C(=O)N[C@@H](Cc2c[nH]c3ccccc23)C(=O)N[C@@H](CCN)C(=O)N[C@@H](Cc2cn(CC(=O)O)c3ccccc23)C(=O)N1C` [Example 14125], the 50% inhibitory concentration (IC50) – broadly, the concentration that inhibits the measured activity by half – lay in the range of 0.0003 to 0.0099 µM.

Turning to `CCCC[C@H]1C(=O)N(C)[C@@H](CCCC)C(=O)N[C@@H](CC(C)C)C(=O)N[C@H](C(=O)NCC(=O)N[C@@H](CC(=O)O)C(=O)NCCOCCOCCOCCOCCOCCOCCC(=O)NC[C@H](NC(=O)CCCCCCCCCCCCCCCCC(=O)O)C(=O)O)CSCC(=O)N[C@@H](Cc2ccc(O)cc2)C(=O)N(C)[C@@H](C)C(=O)N[C@@H](CC(N)=O)C(=O)N2CCC[C@H]2C(=O)N[C@@H](CN)C(=O)N[C@@H](CC(C)C)C(=O)N2C[C@H](O)C[C@H]2C(=O)N[C@@H](Cc2c[nH]c3ccccc23)C(=O)N[C@@H](CCN)C(=O)N[C@@H](Cc2cn(CC(=O)O)c3ccccc23)C(=O)N1C` [Example 11181] ({CH2CO}-Y[NMeA]NP[Dap]L[Hyp]W[Dab][Trp(1-CH2COOH)][NMeNle][NMeNle]LCGD[PEG6]-{Dap(Nα-HOOC(CH2)16CO)OH}; thioether N-14), the IC50 is 0.1 to 1.6 µM.

Consider `CCCC[C@H]1C(=O)N(C)[C@@H](CCCC)C(=O)N[C@@H](CC(C)C)C(=O)N[C@H](C(=O)NCC(=O)N[C@@H](CC(=O)NCC[C@H](NC(=O)CCCCCCCCCCCCCCCCC(=O)O)C(=O)O)C(=O)O)CSCC(=O)N[C@@H](Cc2ccc(O)cc2)C(=O)N2CCCC[C@H]2C(=O)N[C@@H](CC(N)=O)C(=O)N2CCC[C@H]2C(=O)N[C@@H](CN)C(=O)N[C@@H](CC(C)C)C(=O)N2C[C@H](O)C[C@H]2C(=O)N[C@@H](Cc2c[nH]c3ccccc23)C(=O)N[C@@H](CCN)C(=O)N[C@@H](Cc2cn(CC(=O)O)c3ccccc23)C(=O)N1C` [Example 13144] ({CH2CO}-Y[Pip]NP[Dap]L[Hyp]W[Dab][Trp(1-CH2COOH)][NMeNle][NMeNle]LCGD(X9)-OH; thioether N-14), for which the IC50 was in the range of 0.01 to 0.099 µM.

Turning to `C#CC[C@H](NC(=O)CNC(=O)[C@@H]1CSCC(=O)N[C@@H](Cc2ccc(O)cc2)C(=O)N(C)[C@@H](C)C(=O)N[C@@H](CC(=O)O)C(=O)N2CCC[C@H]2C(=O)N[C@@H](Cc2c[nH]cn2)C(=O)N[C@@H](CCC(N)=O)C(=O)N2C[C@H](O)C[C@H]2C(=O)N[C@@H](Cc2c[nH]c3ccccc23)C(=O)N[C@@H](CO)C(=O)N[C@@H](Cc2c[nH]c3ccccc23)C(=O)N(C)[C@@H](CCCC)C(=O)N(C)[C@@H](CCCC)C(=O)N[C@@H](CCC(=O)O)C(=O)N1)C(=O)NCC(N)=O` [INT 1400C] ({CH2CO}-Y[NMeA]DPHQ[Hyp]WSW[NMeNle][NMeNle]ECG[Pra]G-NH2; thioether N-14), the IC50 was in the range of 0.0003 to 0.0099 µM.

With `CCCCCCCCCCCCCC(=O)N[C@H](CCC(=O)NCCCC[C@H](NC(=O)CCC(=O)NCCCOCCOCCOCCCNC(=O)CNC(=O)[C@@H]1CSCC(=O)N[C@@H](Cc2ccc(O)cc2)C(=O)N(C)[C@@H](C)C(=O)N[C@@H](CC(=O)O)C(=O)N2CCC[C@H]2C(=O)N[C@@H](Cc2cnc[nH]2)C(=O)N[C@@H](CC(C)C)C(=O)N2C[C@H](O)C[C@H]2C(=O)N[C@@H](Cc2c[nH]c3ccccc23)C(=O)N[C@@H](CO)C(=O)N[C@@H](Cc2c[nH]c3ccccc23)C(=O)N(C)[C@@H](CCCC)C(=O)N(C)[C@@H](CCCC)C(=O)N[C@@H](CCCNC(=N)N)C(=O)N1)C(N)=O)C(=O)O` [Example 11125] ({CH2CO}-Y[NMeA]DPHL[Hyp]WSW[NMeNle][NMeNle]RCG-X22; thioether N-14), the IC50 lay in the range of 0.01 to 0.099 µM.

Turning to `CCCC[C@H]1C(=O)N(C)[C@@H](CCCC)C(=O)N[C@@H](CCC(=O)O)C(=O)N[C@H](C(=O)NCC(=O)N[C@@H](Cc2cn(CCOCCOCCOCCOCCOCCOCCOCCOCCOCCOCCOCCNC(=O)CC[C@H](NC(=O)CCCCCCCCCCCCCCCCC(=O)O)C(=O)O)nn2)C(=O)O)CSCC(=O)N[C@@H](Cc2ccc(O)cc2)C(=O)N2CCCC[C@H]2C(=O)N[C@@H](CC(N)=O)C(=O)N2CCC[C@H]2C(=O)N[C@@H](CN)C(=O)N[C@@H](CC(C)C)C(=O)N2C[C@H](O)C[C@H]2C(=O)N[C@@H](Cc2c[nH]c3ccccc23)C(=O)N[C@@H](CCN)C(=O)N[C@@H](Cc2cn(CC(=O)O)c3ccccc23)C(=O)N1C` [Example 14106], the IC50 lay in the range of 0.1 to 1.6 µM.

With `CCCC[C@H]1C(=O)N(C)[C@@H](CCCC)C(=O)N[C@@H](CC(C)C)C(=O)N[C@H](C(=O)NCC(=O)N[C@@H](CNC(=O)CC[C@H](NC(=O)CCCCCCCCCCCCCCCCC(=O)O)C(=O)O)C(=O)O)CSCC(=O)N[C@@H](Cc2ccc(OC)cc2)C(=O)N2CCCC[C@H]2C(=O)N[C@@H](CC(N)=O)C(=O)N2CCC[C@H]2C(=O)N[C@@H](Cc2c[nH]cn2)C(=O)N[C@@H](CCC(N)=O)C(=O)N2C[C@H](O)C[C@H]2C(=O)N[C@@H](Cc2c[nH]c3ccccc23)C(=O)N[C@@H](CCN)C(=O)N[C@@H](Cc2cn(CC(=O)O)c3ccccc23)C(=O)N1C` [Example 13154] ({CH2CO}-Y(Me)[Pip]NPHQ[Hyp]W[Dab][Trp(1-CH2COOH)][NMeNle][NMeNle]LCG[Dap]([γGlu-C18 diacid])-OH; thioether N-14), the IC50 was 0.0003 to 0.0099 µM.

On to `CCCC[C@H]1C(=O)N(C)[C@@H](CCCC)C(=O)N[C@@H](CC(C)C)C(=O)N[C@H](C(=O)NCCCCCCCCCCC(=O)N[C@@H](CC(=O)O)C(N)=O)CSCC(=O)N[C@@H](Cc2ccc(O)cc2)C(=O)N(C)[C@@H](C)C(=O)N[C@@H](CC(N)=O)C(=O)N2CCC[C@H]2C(=O)N[C@@H](Cc2cnc[nH]2)C(=O)N[C@@H](CCC(=O)O)C(=O)N2C[C@H](O)C[C@H]2C(=O)N[C@@H](Cc2c[nH]c3ccccc23)C(=O)N[C@@H](CCN)C(=O)N[C@@H](Cc2cn(CC(=O)O)c3ccccc23)C(=O)N1C` [Example 11066] ({CH2CO}-Y[NMeA]NPHE[Hyp]W[Dab][Trp(1-CH2COOH)][NMeNle][NMeNle]LC[Aun]D-NH2; thioether N-14), for which the IC50 lay within 0.0003 to 0.0099 µM.

On to `CCCC[C@H]1C(=O)N(C)[C@@H](CCCC)C(=O)N[C@@H](CC(C)C)C(=O)N[C@H](C(=O)NCC(=O)NCC(=O)NCC(=O)NCCCCCCCCCCCCC(=O)O)CSCC(=O)N[C@@H](Cc2ccc(O)cc2)C(=O)N(C)[C@@H](C)C(=O)N[C@@H](CC(N)=O)C(=O)N2CCC[C@H]2C(=O)N[C@@H](CN)C(=O)N[C@@H](CC(C)C)C(=O)N2C[C@H](O)C[C@H]2C(=O)N[C@@H](Cc2c[nH]c3ccccc23)C(=O)N[C@@H](CCN)C(=O)N[C@@H](Cc2cn(CC(=O)O)c3ccccc23)C(=O)N1C` [Example 11215] ({CH2CO}-Y[NMeA]NP[Dap]L[Hyp]W[Dab][Trp(1-CH2COOH)][NMeNle][NMeNle]LCGGG-{NH(CH2)12COOH}; thioether N-14), for which the IC50 fell in the range of 0.01 to 0.099 µM.
